Experimental data taken from patent US20080107603A1, “Neuroprotectant methods, compositions, and screening methods thereof” (priority 2002, published 2008).
Like-named read-outs stand apart in the source and are kept apart here.

Experiments:
PC12 cells [1] = assay: Cell death induced by peroxynitrite generating SIN-1 (MTT); format: cell-based, Rat; details: MTT reduction assay
Procedure: The MTT assay is a sensitive measurement of the normal metabolic status of cells, particularly that of mitochondria, which reflects early cellular redox changes. After incubation, cells were treated with the MTT solution (final concentration, 1 mg/ml) for 2 h. The dark blue formazan crystals formed in intact cells were dissolved in DMSO, and absorbance at 570 nm was measured with a microplate reader. Results were expressed as the percentage (%) of MTT reduction, assuming that the absorbance of control cells was 100%.

NF-κB = assay: EMSA, Aβ25-35-induced NF-κB DNA binding activity; format: cell-based, Rat; details: 25 μM Aβ25-35 for 1 h; EGT pretreatment (0.5 mM, 1 mM)
Procedure: To explore the molecular mechanisms underlying the protective effect of L-ergothioneine against Aβ25-35-induced nitrosative cell death, the activation of NF-κB was assessed by EMSA using an oligonucleotide containing a consensus κB binding element. After treatment with 25 μM Aβ25-35 for 1 h in the absence or presence of L-ergothioneine, PC12 cells (1×10^7 cells/7 ml in 100φ dish) were washed with PBS, centrifuged, and resuspended in ice-cold isotonic buffer A [10 mM HEPES, pH 7.9, 1.5 mM MgCl2, 10 mM KCl, 0.5 mM dithiothreitol (DTT) and 0.2 mM phenylmethylsulfonyl fluoride (PMSF)]. Following incubation in an ice bath for 10 min, cells were centrifuged again and resuspended in ice-cold buffer C containing 20 mM HEPES (pH 7.9), 20% glycerol, 420 mM […], 1.5 mM MgCl2, 0.2 mM EDTA, 0.5 mM DTT and 0.2 mM PMSF followed by incubation at 0° C. for 20 min. After vortex-mixing, the resulting suspension was centrifuged, and the supernatant was stored at −70° C. for the NF-κB DNA binding assay. The protein concentration was determined by using the BCA protein assay kit.
Synthetic double strand oligonucleotide containing the NF-κB binding domain was labeled with [γ-^32P]ATP using T4 polynucleotide kinase and separated from unincorporated [γ-^32P]ATP by gel filtration using a nick spin column (Phamacia Biotech, Bjorkgatan, Sweden). […]

[2] = Man; cited from earlier work
[3] = Rat; cited from earlier work
[4] = Dog; cited from earlier work
PC12 cells [5] = assay: LDH release assay, Aβ25-35-treated PC12 cells; format: cell-based, Rat; details: 25 μM Aβ25-35-treated PC12 cells
Procedure: PC12 cells were maintained in DMEM supplemented with 10% heat-inactivated horse serum and 5% fetal bovine serum at 37° C. in a humidified atmosphere of 10% CO2/90% air. All cells were cultured in poly-D-lysine coated culture dishes. The medium was changed every other day, and cells were plated at an appropriate density according to each experimental scale. After 24 h subculture, cells were switched to serum-free N-2 defined medium for treatment. For determination of cell viability, PC12 cells were initially plated at a density of 4×10^4 cells/300 μl in 48-well plates, and the cell viability was determined by the conventional MTT reduction and the lactate dehydrogenase (LDH) release assay as described below.
This assay measures the leakage of the soluble cytoplasmic LDH enzyme into the extracellular medium due to cell lysis. PC12 cells were plated at the same density as for the MTT assay described above. The amount of lactate was measured by monitoring the oxidation of L-lactic acid by NAD^+ in the presence of LDH to pyruvate. The culture media were transferred to 96-well plate and incubated with 1 mg/ml β-NAD^+ in pyruvate substrate solution at 37° C. for 30 min. […] The changes in absorbance were determined at 450 nm using a spectrophotometric microplate reader.

PARP = assay: Western blot, Aβ25-35-induced cleavage of PARP; format: cell-based, Rat; details: 25 μM Aβ25-35, 36 h
Procedure: After treatment, cells (1×10^7 cells/7 ml in 100φ dish) were collected and washed with PBS. After centrifugation, cell lysis was carried out at 4° C. by vigorous shaking for 15 min in RIPA buffer (150 mM NaCl, 1% NP-40, 0.5% sodium deoxycholate, 0.1% SDS, 50 mM Tris-HCl (pH 7.4), 50 mM glycerphosphate, 20 mM NaF, 20 mM EGTA, 1 mM DTT, 1 mM Na3VO4 and protease inhibitors). After centrifugation at 15,000 rpm for 15 min, supernatant was separated and stored at −70° C. until use. The protein concentration was determined by using the bicinchrinic acid (BCA) protein assay kit (Pierce, Rockford, Ill., USA). After addition of sample loading buffer, protein samples were electrophoresed on a 12.5% SDS-polyacrylamide gel. Proteins were transferred to polyvinylidene difluoride blots at 300 mA for 3 h. The blots were blocked for 1 h at room temperature in fresh blocking buffer (0.1% Tween-20 in Tris-buffered saline, pH 7.4 containing 5% non-fat dried milk). Dilutions (1:1000) of primary anti-poly(ADP-ribose)polymerase (PARP), anti-Bcl-XL and anti-Bax antibodies were made in PBS with 3% non-fat dry milk. Following three washes with PBST (PBS and 0.1% Tween-20), the blots were incubated with horseradish peroxidase-conjugated secondary antibodies in PBS with 3% non-fat dry milk for 1 h at room temperature. […]

In the case of C[N+](C)(C)[C@@H](Cc1c[nH]c(=S)[nH]1)C(=O)[O-] [L-ergothioneine, 2-mercaptohistidine trimethylbetaine], the “cytotoxicity induced by the peroxynitrite releasing compound SIN-1” value (PC12 cells [1]) is listed as “selectively protected”, the “NF-κB DNA binding” value (NF-κB) is listed as “inhibited” and the “L-Ergothioneine Concentration (mg/100 ml blood)” value (“L-Ergothioneine Concentration” below) [2] is listed as 1-4 mg/100 ml blood. For the same compound, the “L-Ergothioneine Concentration” value [3] was 1-6 mg/100 ml blood, the “L-Ergothioneine Concentration” value [4] was 3-6 mg/100 ml blood and the LDH release (PC12 cells [5]) was “reduce the LDH release”. For the same compound, the “cleavage of PARP” value (PARP) was “inhibited”.
